Where two headings read alike, the source gives them in different places.
What was measured:
[1] = molecular target: T1, human α1B‐adrenoceptor (Homo sapiens, UniProt P35368); test: ^3H‐prazosin whole‐cell radioligand binding, CHO‐α1B cells; conditions: CHO‐α1B cells; for Log KD, ^3H‐prazosin binding: whole‐cell binding (from Table 1), given as log KD (negative numbers); for Log KD α1B, ^3H‐prazosin whole cell binding: given as log KD (negative), mean ± SEM
T1 construct: expressed in transfected cells; host or cells: CHO-K1
T1 sequence (P35368 1-520): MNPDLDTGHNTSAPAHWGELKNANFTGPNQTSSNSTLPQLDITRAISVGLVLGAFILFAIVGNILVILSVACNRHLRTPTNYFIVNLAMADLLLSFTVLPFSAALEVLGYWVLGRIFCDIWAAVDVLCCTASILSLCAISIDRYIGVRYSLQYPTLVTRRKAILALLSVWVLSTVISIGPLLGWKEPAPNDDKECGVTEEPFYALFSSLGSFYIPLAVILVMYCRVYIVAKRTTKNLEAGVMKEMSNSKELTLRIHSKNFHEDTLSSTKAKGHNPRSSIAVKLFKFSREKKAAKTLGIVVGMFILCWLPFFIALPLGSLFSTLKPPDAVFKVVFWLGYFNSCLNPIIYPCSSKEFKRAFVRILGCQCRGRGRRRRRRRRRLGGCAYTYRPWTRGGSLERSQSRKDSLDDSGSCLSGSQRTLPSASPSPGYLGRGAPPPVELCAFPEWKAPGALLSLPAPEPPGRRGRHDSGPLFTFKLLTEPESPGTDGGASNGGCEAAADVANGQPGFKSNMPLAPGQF

[2] = molecular target: T2, human α1D‐adrenoceptor (full length) (Homo sapiens, UniProt P25100); test: ^3H‐prazosin whole‐cell radioligand binding, CHO‐α1D cells
T2 construct: human α1D‐adrenoceptor (full length) were used; expressed in transfected cells; host or cells: CHO-K1
T2 sequence (P25100 1-572): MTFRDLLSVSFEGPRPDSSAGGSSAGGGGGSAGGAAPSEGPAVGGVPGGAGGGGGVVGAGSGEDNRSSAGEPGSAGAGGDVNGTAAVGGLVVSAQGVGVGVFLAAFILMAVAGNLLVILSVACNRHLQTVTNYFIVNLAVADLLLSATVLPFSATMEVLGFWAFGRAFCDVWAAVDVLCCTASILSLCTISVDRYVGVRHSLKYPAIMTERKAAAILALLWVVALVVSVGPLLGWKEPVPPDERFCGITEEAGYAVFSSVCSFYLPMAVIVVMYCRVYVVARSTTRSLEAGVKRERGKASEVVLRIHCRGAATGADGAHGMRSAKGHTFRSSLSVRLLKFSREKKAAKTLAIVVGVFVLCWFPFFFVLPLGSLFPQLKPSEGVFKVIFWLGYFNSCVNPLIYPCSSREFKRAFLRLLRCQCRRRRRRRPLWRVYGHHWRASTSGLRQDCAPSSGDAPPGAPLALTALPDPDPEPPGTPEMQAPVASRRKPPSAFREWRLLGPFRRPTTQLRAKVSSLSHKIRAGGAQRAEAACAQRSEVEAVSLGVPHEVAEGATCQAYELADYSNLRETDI

[3] = molecular target: T1, human α1B‐adrenoceptor; test: Intracellular free calcium mobilization, CHO‐α1B cells; type: cell-based; conditions: for Intracellular calcium release % ionomycin: maximal response as % of 10 µM ionomycin response
[4] = molecular target: T2, human α1D‐adrenoceptor (full length); test: Intracellular free calcium mobilization, CHO‐α1D cells; type: cell-based; conditions: for Intracellular calcium release % ionomycin: maximal response as % of 10 µM ionomycin
[5] = molecular target: T3, human α1A‐adrenoceptor (Homo sapiens, UniProt P35348); test: ERK1/2‐phosphorylation (Surefire Alphascreen), CHO‐α1A cells; type: cell-based; conditions: CHO‐α1A cells; response at 100 μM ligand, no EC50 obtained
T3 construct: expressed in transfected cells; host or cells: CHO-K1
T3 sequence (P35348 1-466): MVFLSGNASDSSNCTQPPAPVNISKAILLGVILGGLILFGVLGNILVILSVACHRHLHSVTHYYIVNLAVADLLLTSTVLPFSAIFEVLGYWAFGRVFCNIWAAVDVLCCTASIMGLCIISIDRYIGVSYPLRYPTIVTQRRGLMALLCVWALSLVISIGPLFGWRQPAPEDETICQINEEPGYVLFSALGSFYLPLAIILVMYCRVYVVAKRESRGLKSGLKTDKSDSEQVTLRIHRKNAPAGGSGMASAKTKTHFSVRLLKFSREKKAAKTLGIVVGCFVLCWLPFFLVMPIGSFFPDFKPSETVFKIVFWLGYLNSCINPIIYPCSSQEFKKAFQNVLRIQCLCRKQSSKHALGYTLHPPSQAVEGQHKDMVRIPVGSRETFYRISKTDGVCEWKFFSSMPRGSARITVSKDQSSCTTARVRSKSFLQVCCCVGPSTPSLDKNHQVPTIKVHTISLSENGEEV

[6] = molecular target: T1, human α1B‐adrenoceptor; test: ERK1/2‐phosphorylation (Surefire Alphascreen), CHO‐α1B cells; type: cell-based; conditions: CHO‐α1B cells; response at 100 µM ligand (no EC50 given)
[7] = molecular target: T2, human α1D‐adrenoceptor (full length); test: ERK1/2‐phosphorylation (Surefire Alphascreen), CHO‐α1D cells; type: cell-based; conditions: for ERK1/2‐phosphorylation % PDBu at 10 µM: response at 10 µM ligand (no EC50 given)
[8] = test system: parental CHO cell line without any transfected receptors; test: ERK1/2‐phosphorylation, parent CHO cells without transfected receptors; type: cell-based, Chinese hamster; conditions: for ERK1/2-phosphorylation % PDBu: maximal response as % of PDBu (10μM) response
[9] = molecular target: T3, human α1A‐adrenoceptor; test: ^3H‐prazosin whole‐cell radioligand binding, CHO‐α1A cells; conditions: for Log KD α1A, ^3H‐prazosin whole cell binding: CHO‐α1A cells, given as log KD (negative), mean ± SEM
[10] = molecular target: T3, human α1A‐adrenoceptor; test: Intracellular free calcium mobilization, CHO‐α1A cells; type: cell-based
[11] = CHO‐α1D cells, given as log KD (negative), mean ± SEM, 'early plateau' = specific binding not fully inhibited
[12] = CHO‐α1D cells, log values given negative
[13] = CHO cells without transfected receptors, mean ± s.e.m.
[14] = CHO‐α1B cells, given as log EC50 (negative numbers)

CC(C)(C)NCC(O)c1ccc(O)c(CO)c1 (stereo not shown) [Salbutamol]
IC50 ([1]; printed as IC50> log value): > 1000 µM
Kd ([2]; 3H‐prazosin binding Log KD, CHO‐α1D cells, whole‐cell binding (from Table 1), log values given negative): 135 µM
Kd [2, 11]: 135 µM
EC50 ([3]; CHO‐α1B cells, given as log EC50 (negative numbers), read-out: Intracellular calcium release Log EC50 (converted)): 7.24 µM
Intracellular calcium release % ionomycin ([3]; CHO‐α1B cells): 58.4 ± 3.0%
Intracellular calcium release Log EC50 [4, 12]: No response
Intracellular calcium release % ionomycin ([4]; CHO‐α1D cells): No response
ERK1/2‐phosphorylation % PDBu at 100 µM [5]: 4.3 ± 1.9%
ERK1/2‐phosphorylation % PDBu at 100 µM [6]: 7.1 ± 3.5%
ERK1/2‐phosphorylation % PDBu at 100 µM ([7]; CHO‐α1D cells, response at 100 µM ligand (no EC50 given)): 4.0 ± 2.5%
Emax at 100 µM ([8]; Cricetulus griseus, CHO, read-out: ERK1/2-phosphorylation % PDBu at 100μM): 3.5 ± 2%

Cc1ccc(/N=C/N(C)/C=N/c2ccc(C)cc2C)c(C)c1 [Amitraz]
Affinity selectivity ratio α1A vs α1B [9]: >33.1 fold
Affinity selectivity ratio α1B vs α1D [2]: >12.0 fold
Intracellular calcium release Log EC50 [10]: No response
Intracellular calcium release Log EC50 [3]: No response
Intracellular calcium release Log EC50 [4]: No response
ERK1/2‐phosphorylation % PDBu [7]: No response
ERK1/2‐phosphorylation Log EC50 [7]: No response
ERK1/2-phosphorylation Log EC50 [8]: No response
ERK1/2-phosphorylation % PDBu [8, 13]: No response

O=C1Cc2cc(CCN3CCN(c4nsc5ccccc45)CC3)c(Cl)cc2N1 [Ziprasidone]
Intracellular calcium release Log EC50 [4, 12]: No response
Intracellular calcium release % ionomycin ([4]; CHO‐α1D cells): No response
ERK1/2‐phosphorylation % PDBu at 10 µM ([7]; CHO‐α1D cells): 4.6 ± 2.7%

C[C@](N)(Cc1ccc(O)c(O)c1)C(=O)O [Methyldopa]
Log KD α1A, ^3H‐prazosin whole cell binding [9]: No binding
Log KD, ^3H‐prazosin binding [1]: No binding
Log KD α1B, ^3H‐prazosin whole cell binding [1]: No binding
IC50 ([2]; CHO‐α1D cells, whole‐cell binding, given as IC50 > log value): > 100 µM
Log KD α1D, ^3H‐prazosin whole cell binding [2, 11]: No binding
Intracellular calcium release Log EC50 ([10]; CHO‐α1A cells, given as log EC50 (negative)): No response
Intracellular calcium release % ionomycin ([10]; CHO‐α1A cells, maximal response as % of 10 µM ionomycin): No response
Intracellular calcium release Log EC50 [3, 14]: No response
Intracellular calcium release % ionomycin ([3]; CHO‐α1B cells): No response
Intracellular calcium release Log EC50 [4, 12]: No response
Intracellular calcium release % ionomycin ([4]; CHO‐α1D cells): No response
ERK1/2‐phosphorylation Log EC50 [7, 12]: No response
ERK1/2‐phosphorylation % PDBu ([7]; CHO‐α1D cells, maximal response as % of PDBu): No response
ERK1/2-phosphorylation % PDBu [8, 13]: No response
ERK1/2-phosphorylation Log EC50 [8, 13]: No response

Cc1sc(C)c2c1CCC=C2c1cnc[nH]1.O=C(O)/C=C\C(=O)O [T‐CG 1000]
Log KD α1A, ^3H‐prazosin whole cell binding [9]: −5.96 ± 0.05
Affinity selectivity ratio α1A vs α1B ([9]; higher affinity for α1A than α1B): 6.0 fold
Affinity selectivity ratio α1A vs α1D ([9]; higher affinity for α1A than α1D): 1.1 fold
Log KD, ^3H‐prazosin binding [1]: −5.18
Log KD α1B, ^3H‐prazosin whole cell binding [1]: −5.18 ± 0.06
3H‐prazosin binding Log KD ([2]; CHO‐α1D cells, whole‐cell binding (from Table 1), log values given negative): −5.91
Log KD α1D, ^3H‐prazosin whole cell binding [2, 11]: −5.91 ± 0.12
Affinity selectivity ratio α1B vs α1D ([2]; higher affinity for α1D than α1B): 5.4 fold
Intracellular calcium release % ionomycin at 10 µM ([10]; CHO‐α1A cells, response at 10 μM ligand, no EC50 obtained): 21.0 ± 1.9%
Intracellular calcium release Log EC50 [3, 14]: No response
Intracellular calcium release % ionomycin ([3]; CHO‐α1B cells): No response
Intracellular calcium release Log EC50 [4, 12]: No response
Intracellular calcium release % ionomycin ([4]; CHO‐α1D cells): No response
ERK1/2‐phosphorylation % PDBu at 10 µM ([7]; CHO‐α1D cells): 16.3 ± 5.9%
